From patent US10292391B2, “Pesticidally active 1,2,4-triazole derivatives with sulphur containing substituents” (Syngenta Participations AG, priority 2015, dated 2019)

Assays:
[1] = test system: Spodoptera littoralis (Egyptian Cotton Leaf Worm); assay: Activity against Spodoptera littoralis, systemic via lettuce grown on treated agar; format: in vivo; details: 144 h, test rate of 12.5 ppm, root uptake by lettuce, 6 days after infestation, read-out: effect in at least one of the three categories (mortality, anti-feedancy, or growth inhibition)
From the text: Test compounds were applied by pipette from 10,000 ppm DMSO stock solutions into 24-well plates and mixed with agar. Lettuce seeds were placed on the agar and the multi well plate was closed by another plate which contains also agar. After 7 days the roots have absorbed the compound and the lettuce has grown into the lid plate. The lettuce leafs were now cut off into the lid plate. Spodoptera eggs were pipetted through a plastic stencil on a humid gel blotting paper and the plate closed with it. The samples were assessed for mortality, anti-feedant effect and growth inhibition in comparison to untreated samples 6 days after infestation.

[2] = test system: Diabrotica Balteata (Corn Root Worm); assay: Activity against Diabrotica balteata, sprayed maize sprouts; format: in vivo; details: 96 h, application rate of 200 ppm, L2 larvae, 4 days after infestation, read-out: effect in at least one of the two categories (mortality or growth inhibition)
Protocol: Maize sprouts, placed on an agar layer in 24-well microtiter plates were treated with aqueous test solutions prepared from 10,000 ppm DMSO stock solutions by spraying. After drying, the plates were infested with L2 larvae (6 to 10 per well). The samples were assessed for mortality and growth inhibition in comparison to untreated samples 4 days after infestation.

[3] = test system: Euschistus heros(Neotropical Brown Stink Bug); assay: Activity against Euschistus heros, sprayed soybean leaf; format: in vivo; details: 120 h, application rate of 200 ppm, N-2 nymphs, 5 days after infestation, read-out: effect in at least one of the two categories (mortality or growth inhibition)
Protocol: Soybean leaf on agar in 24-well microtiter plates were sprayed with aqueous test solutions prepared from 10,000 ppm DMSO stock solutions. After drying the leaf were infested with N-2 nymphs. The samples were assessed for mortality and growth inhibition in comparison to untreated samples 5 days after infestation.

[4] = test system: Myzus persicae (Green Peach Aphid); assay: Activity against Myzus persicae, sprayed sunflower leaf discs; format: in vivo; details: foliar, 144 h, application rate of 200 ppm, aphid population of mixed ages, 6 days after infestation
Protocol: (§1) Sunflower leaf discs were placed on agar in a 24-well microtiter plate and sprayed with aqueous test solutions prepared from 10,000 ppm DMSO stock solutions. After drying, the leaf discs were infested with an aphid population of mixed ages. The samples were assessed for mortality 6 days after infestation.

[5] = test system: Thrips tabaci (Onion Thrips); assay: Activity against Thrips tabaci, sprayed sunflower leaf discs; format: in vivo; details: foliar, 144 h, application rate of 200 ppm, thrips population of mixed ages, 6 days after infestation
Protocol: as §1, with “in” for “in a”, “plates” for “plate”, “drying” for “drying,”, “a thrips” for “an aphid”

[6] = test system: Bemisia tabaci (Cotton White Fly); assay: Activity against Bemisia tabaci, sprayed cotton leaf discs; format: in vivo; details: foliar, 144 h, application rate of 200 ppm, adult white flies, 6 days after incubation
Protocol: Cotton leaf discs were placed on agar in 24-well microtiter plates and sprayed with aqueous test solutions prepared from 10,000 ppm DMSO stock solutions. After drying the leaf discs were infested with adult white flies. The samples were checked for mortality 6 days after incubation.

[7] = test system: Plutella xylostella (Diamond Back Moth); assay: Activity against Plutella xylostella, treated artificial diet; format: in vivo; details: 120 h, application rate of 200 ppm, L2 larvae, 5 days after infestation, read-out: effect in at least one of the two categories (mortality or growth inhibition)
Protocol: 24-well microtiter plates with artificial diet were treated with aqueous test solutions prepared from 10,000 ppm DMSO stock solutions by pipetting. After drying, the plates were infested with L2 larvae (10 to 15 per well). The samples were assessed for mortality and growth inhibition in comparison to untreated samples 5 days after infestation.

[8] = test system: Spodoptera littoralis (Egyptian Cotton Leaf Worm); assay: Activity against Spodoptera littoralis, sprayed cotton leaf discs; format: in vivo; details: foliar, 72 h, application rate of 200 ppm, L1 larvae, 3 days after infestation, read-out: control (at least one of mortality, anti-feedant effect, and growth inhibition)
Protocol: Cotton leaf discs were placed on agar in 24-well microtiter plates and sprayed with aqueous test solutions prepared from 10,000 ppm DMSO stock solutions. After drying the leaf discs were infested with five L1 larvae. The samples were assessed for mortality, anti-feedant effect, and growth inhibition in comparison to untreated samples 3 days after infestation. Control of Spodoptera littoralis by a test sample is when at least one of mortality, anti-feedant effect, and growth inhibition is higher than the untreated sample.

[9] = test system: Frankliniella occidentalis (Western Flower Thrips); assay: Activity against Frankliniella occidentalis, sprayed sunflower leaf discs; format: in vivo; details: foliar, 168 h, application rate of 200 ppm, population of mixed ages, 7 days after infestation
Protocol: as §1, with “in” for “in a”, “plates” for “plate”, “10,000” for “10,000 ppm”, “drying” for “drying,”, “a Frankliniella” for “an aphid”, “7” for “6”

[10] = test system: Myzus persicae (Green Peach Aphid); assay: Activity against Myzus persicae, systemic via roots of pea seedlings; format: in vivo; details: 144 h, test rate of 24 ppm, roots of pea seedlings in test solution, 6 days
Protocol: Roots of pea seedlings infested with an aphid population of mixed ages were placed directly in the aqueous test solutions prepared from 10,000 DMSO stock solutions. The samples were assessed for mortality 6 days after placing seedlings in test solutions.

[11] = test system: Tetranychus urticae (Two-Spotted Spider Mite); assay: Activity against Tetranychus urticae, sprayed bean leaf discs; format: in vivo; details: foliar, 192 h
Protocol: Bean leaf discs on agar in 24-well microtiter plates were sprayed with aqueous test solutions prepared from 10,000 ppm DMSO stock solutions. After drying the leaf discs were infested with a mite population of mixed ages. The samples were assessed for mortality on mixed population (mobile stages) 8 days after infestation.

Row | SMILES | percent control (mortality, anti-feedancy or growth inhibition) at 12.5 ppm [1] [%] | percent effect (mortality or growth inhibition) at 200 ppm [2] [%] | percent effect (mortality or growth inhibition) at 200 ppm [3] [%] | mortality at 200 ppm [4] [%] | mortality at 200 ppm [5] [%] | mortality at 200 ppm [6] [%] | percent effect (mortality or growth inhibition) at 200 ppm [7] [%] | mortality at 200 ppm [8] [%] | mortality at 200 ppm [9] [%] | mortality at 24 ppm [10] [%] | mortality at 200 ppm [11] [%] | melting point [°C]
1 | CCS(=O)(=O)c1cc(-n2cc(C(F)(F)F)cn2)cnc1-c1nnc(-c2cc(C(F)(F)F)ccn2)n1C [Compound P6] | ≥ 80 | ≥ 80 | ≥ 80 | ≥ 80 | ≥ 80 | ≥ 80 | ≥ 80 | ≥ 80 | ≥ 80 |  |  | 
2 | CCS(=O)(=O)c1cc(-n2cc(C#N)cn2)cnc1-c1nnc(-c2cc(C(F)(F)F)ccn2)n1C [Compound P14, 1-[5-ethylsulfonyl-6-[4-methyl-5-[4-(trifluoromethyl)-2-pyridyl]-1,2,4-triazol-3-yl]-3-pyridyl]pyrazole-4-carbonitrile] | ≥ 80 | ≥ 80 | ≥ 80 | ≥ 80 | ≥ 80 | ≥ 80 | ≥ 80 | ≥ 80 | ≥ 80 | ≥ 80 |  | 
3 | CCS(=O)(=O)c1cc(C2(C#N)CC2)cnc1-c1nnc(-c2cc(C(F)(F)F)ccn2)n1C [Compound P17, 1-[5-ethylsulfonyl-6-[4-methyl-5-[4-(trifluoromethyl)-2-pyridyl]-1,2,4-triazol-3-yl]-3-pyridyl]cyclopropanecarbonitrile] | ≥ 80 | ≥ 80 | ≥ 80 | ≥ 80 | ≥ 80 | ≥ 80 | ≥ 80 | ≥ 80 | ≥ 80 | ≥ 80 |  | 
4 | CCS(=O)(=O)c1cc(-c2nccc(C#N)n2)cnc1-c1nnc(-c2cc(C(F)(F)F)ccn2)n1C [Compound P19] |  | ≥ 80 |  |  |  |  |  | ≥ 80 |  |  | ≥ 80 | 
5 | CCS(=O)(=O)c1cc(-n2cnc(Cl)n2)cnc1-c1nnc(-c2cc(C(F)(F)F)ccn2)n1C [Compound P27] | ≥ 80 | ≥ 80 | ≥ 80 | ≥ 80 | ≥ 80 | ≥ 80 | ≥ 80 | ≥ 80 | ≥ 80 | ≥ 80 |  | 
6 | CCSc1ccc(-c2ccc(C(F)(F)F)cc2)nc1-c1nnc(-c2cc(C(F)(F)F)ccn2)n1C [Compound P31, 3-ethylsulfanyl-2-[4-methyl-5-[4-(trifluoromethyl)-2-pyridyl]-1,2,4-triazol-3-yl]-6-[4-(trifluoromethyl)phenyl]pyridine] |  |  |  |  |  |  |  |  |  |  |  | 174 to 175
7 | CCSc1cc(SC(F)(F)F)cnc1-c1nnc(-c2cc(C(F)(F)F)ccn2)n1C [Compound P33, 3-ethylsulfanyl-2-[4-methyl-5-[4-(trifluoromethyl)-2-pyridyl]-1,2,4-triazol-3-yl]-5-(trifluoromethylsulfanyl)pyridine] |  |  |  |  |  |  |  |  |  |  |  | 94 to 95
8 | CCS(=O)(=O)c1cc(-n2cnc(Cl)n2)cnc1-c1nnc(-c2cc(C(F)(F)F)ncn2)n1C [Compound P45] |  | ≥ 80 | ≥ 80 | ≥ 80 | ≥ 80 | ≥ 80 | ≥ 80 | ≥ 80 | ≥ 80 | ≥ 80 |  | 
9 | CCS(=O)(=O)c1ccc(-n2cnc(C#N)n2)nc1-c1nnc(-c2cc(C(F)(F)F)ncn2)n1C [Compound P49] |  |  |  |  |  |  |  |  |  |  |  | 242 to 244
10 | CCS(=O)(=O)c1ccc(-c2cccc(F)c2)nc1-c1nnc(-c2cc(C(F)(F)F)ncn2)n1C [Compound P51] |  |  |  |  |  |  |  |  |  |  |  | 201 to 203
